The numbers were not newly measured in patent US12552784B2, “1H-pyrrolo[2,3-b]pyridine derivatives as BCL-2 inhibitors for the treatment of neoplastic and autoimmune diseases” (priority 2019, dated 2026), which cites them from elsewhere.

The test system of series [1] is RS4;11 xenografts. The note with it: single dose of 100 mg/kg.
In series [2] the test system is Granta-519. The note with it: single agent or in combination with Bendamustine and other agents.
Series [3] relates to CLL who have 17p deletion. To be noted: Human Phase I and II.
Series [4] has as its system RS4;11 cells.
For series [5], the system named is CLL. The note with it: average; read-out: EC50 apoptosis in CLL.
Series [6] relates to DoHH2. The note with it: single agent or in combination with Bendamustine and other agents.
Series [7] concerns H345 xenograft model. To be noted: 100 mg/kg/day.
Series [8] has as its target T1, Bcl-w (Homo sapiens, UniProt Q92843).
T1 sequence (Q92843 1-193): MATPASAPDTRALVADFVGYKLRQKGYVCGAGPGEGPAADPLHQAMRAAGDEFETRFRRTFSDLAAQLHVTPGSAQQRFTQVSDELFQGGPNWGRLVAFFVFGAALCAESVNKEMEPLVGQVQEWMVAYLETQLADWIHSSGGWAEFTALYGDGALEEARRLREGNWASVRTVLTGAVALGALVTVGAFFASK

The test system of series [9] is small-cell lung cancer. To be noted: oral administration alone.
The subject of series [10] is acute lymphoblastic leukemia. To be noted: oral administration alone.
The conditions of series [11]: in vivo.
For series [12], the system named is SCLC H146 cell line. To be noted: read-out: IC50 against SCLC H146 cell line.
Series [13] has as its system circulating platelets.
For series [14], the system named is established tumors. To be noted: animal models.

For the molecule `CC1(C)CCC(CN2CCN(c3ccc(C(=O)NS(=O)(=O)c4ccc(NCC5CCOCC5)c([N+](=O)[O-])c4)c(Oc4cnc5[nH]ccc5c4)c3)CC2)=C(c2ccc(Cl)cc2)C1` [ABT-199], the “maximal tumor growth inhibition” value in series [1] is 95%. Moreover, the tumor growth delay in series [1] is listed as 152%. For the same molecule, the xenograft growth result in series [2] and in series [6] was “inhibits xenograft growth” each time. In series [3], the clinical efficacy result is “highly efficacious”. Besides, the EC50 in series [4] is 8 nM; in [5], 3 nM. In addition, the “apoptosis in RS4;11 cells” value in series [4] (with cytochrome c release, caspase activation, accumulation of sub-G0/G1 DNA) is recorded as “rapid apoptosis”.
In the case of `CC1(C)CCC(c2ccc(Cl)cc2)=C(CN2CCN(c3ccc(C(=O)NS(=O)(=O)c4ccc(N[C@H](CCN5CCOCC5)CSc5ccccc5)c(S(=O)(=O)C(F)(F)F)c4)cc3)CC2)C1` [ABT-263], in series [7], the TGI was 80% and the “treated tumors indicating at least a 50% reduction in tumor volume” value was 20%. For the same molecule, the Ki in series [8] was at most 1 nM. Besides, the tumor regression result in [9] was “complete tumor regressions”. The tumor regression result in series [10] was “complete tumor regressions”. Further, the oral bioavailability entry in series [11] was “orally bioavailable”. Moreover, the IC50 in [12] was 110 nM. The “number of circulating platelets” value in series [13] (clinical trial) is listed as “rapid, concentration-dependent decrease”. The dose-limiting toxicity entry in [13] (single-agent treatment in patients) is listed as “mechanism-based thrombocytopenia”.
`CN(C)CC[C@H](CSc1ccccc1)Nc1ccc(S(=O)(=O)NC(=O)c2ccc(N3CCN(Cc4ccccc4-c4ccc(Cl)cc4)CC3)cc2)cc1[N+](=O)[O-]` [ABT-737]: the aqueous solubility entry is given as “low aqueous solubility”. In [11], the oral bioavailability result was “not orally bioavailable”. Besides, in series [14], the cures entry is on record as “produces cures in a high percentage of the mice”, the survival result is recorded as “improves survival” and the tumor regression entry is recorded as “causes regression of established tumors”.
